{"source": "patent US20100168218A1", "about": "(priority 2005, published 2010)", "key": {"[1]": {"experiment": "Weight loss, food intake and indirect calorimetry in lean female Balb/C mice, 60 mg/kg", "type": "in vivo", "details": "for Metabolic Mechanism (indirect calorimetry): RER / Metabolic Mechanism (indirect calorimetry): VO2: compared to pair-fed animals; for % Maximum Reduction in Food Intake: day 1; for % Maximum Reduction in Food Intake / % Max. Wt Loss: 60 mg/kg", "description": "Compounds 4 and 5 were administered to pair-fed mice, and various biological properties were tested for. The results are summarized below:\n(§1) In contrast, it stimulated FAO by 150% of control at 8.4 μg/ml (28 μM) and CPT-1 activity by 150% of control at 20 μg/ml (˜60 μM). In lean female Balb/C mice, a single ip dose of 60 mg/kg caused nearly 8% weight loss within 24 hours along with a 68% reduction in food intake. […] Compound 5, with a different chemical structure, has similar biological characteristics to Compound 4."}, "CPT-1": {"system": "CPT-1", "experiment": "CPT-1 activity in digitonin permeabilized cells", "type": "cell-based"}, "[2]": {"experiment": "Oral 100 mg/kg in diet-induced obese mice vs pair-fed and control animals (FIG. 3)", "type": "in vivo", "description": "In this experiment, compound 4 was administered orally at 100 mg/kg, in 35 μl DMSO to diet-induced obese mice, 5 animals per group."}, "human FAS": {"target": "human FAS (Homo sapiens, UniProt P49327)", "sequence (P49327 whole entry)": "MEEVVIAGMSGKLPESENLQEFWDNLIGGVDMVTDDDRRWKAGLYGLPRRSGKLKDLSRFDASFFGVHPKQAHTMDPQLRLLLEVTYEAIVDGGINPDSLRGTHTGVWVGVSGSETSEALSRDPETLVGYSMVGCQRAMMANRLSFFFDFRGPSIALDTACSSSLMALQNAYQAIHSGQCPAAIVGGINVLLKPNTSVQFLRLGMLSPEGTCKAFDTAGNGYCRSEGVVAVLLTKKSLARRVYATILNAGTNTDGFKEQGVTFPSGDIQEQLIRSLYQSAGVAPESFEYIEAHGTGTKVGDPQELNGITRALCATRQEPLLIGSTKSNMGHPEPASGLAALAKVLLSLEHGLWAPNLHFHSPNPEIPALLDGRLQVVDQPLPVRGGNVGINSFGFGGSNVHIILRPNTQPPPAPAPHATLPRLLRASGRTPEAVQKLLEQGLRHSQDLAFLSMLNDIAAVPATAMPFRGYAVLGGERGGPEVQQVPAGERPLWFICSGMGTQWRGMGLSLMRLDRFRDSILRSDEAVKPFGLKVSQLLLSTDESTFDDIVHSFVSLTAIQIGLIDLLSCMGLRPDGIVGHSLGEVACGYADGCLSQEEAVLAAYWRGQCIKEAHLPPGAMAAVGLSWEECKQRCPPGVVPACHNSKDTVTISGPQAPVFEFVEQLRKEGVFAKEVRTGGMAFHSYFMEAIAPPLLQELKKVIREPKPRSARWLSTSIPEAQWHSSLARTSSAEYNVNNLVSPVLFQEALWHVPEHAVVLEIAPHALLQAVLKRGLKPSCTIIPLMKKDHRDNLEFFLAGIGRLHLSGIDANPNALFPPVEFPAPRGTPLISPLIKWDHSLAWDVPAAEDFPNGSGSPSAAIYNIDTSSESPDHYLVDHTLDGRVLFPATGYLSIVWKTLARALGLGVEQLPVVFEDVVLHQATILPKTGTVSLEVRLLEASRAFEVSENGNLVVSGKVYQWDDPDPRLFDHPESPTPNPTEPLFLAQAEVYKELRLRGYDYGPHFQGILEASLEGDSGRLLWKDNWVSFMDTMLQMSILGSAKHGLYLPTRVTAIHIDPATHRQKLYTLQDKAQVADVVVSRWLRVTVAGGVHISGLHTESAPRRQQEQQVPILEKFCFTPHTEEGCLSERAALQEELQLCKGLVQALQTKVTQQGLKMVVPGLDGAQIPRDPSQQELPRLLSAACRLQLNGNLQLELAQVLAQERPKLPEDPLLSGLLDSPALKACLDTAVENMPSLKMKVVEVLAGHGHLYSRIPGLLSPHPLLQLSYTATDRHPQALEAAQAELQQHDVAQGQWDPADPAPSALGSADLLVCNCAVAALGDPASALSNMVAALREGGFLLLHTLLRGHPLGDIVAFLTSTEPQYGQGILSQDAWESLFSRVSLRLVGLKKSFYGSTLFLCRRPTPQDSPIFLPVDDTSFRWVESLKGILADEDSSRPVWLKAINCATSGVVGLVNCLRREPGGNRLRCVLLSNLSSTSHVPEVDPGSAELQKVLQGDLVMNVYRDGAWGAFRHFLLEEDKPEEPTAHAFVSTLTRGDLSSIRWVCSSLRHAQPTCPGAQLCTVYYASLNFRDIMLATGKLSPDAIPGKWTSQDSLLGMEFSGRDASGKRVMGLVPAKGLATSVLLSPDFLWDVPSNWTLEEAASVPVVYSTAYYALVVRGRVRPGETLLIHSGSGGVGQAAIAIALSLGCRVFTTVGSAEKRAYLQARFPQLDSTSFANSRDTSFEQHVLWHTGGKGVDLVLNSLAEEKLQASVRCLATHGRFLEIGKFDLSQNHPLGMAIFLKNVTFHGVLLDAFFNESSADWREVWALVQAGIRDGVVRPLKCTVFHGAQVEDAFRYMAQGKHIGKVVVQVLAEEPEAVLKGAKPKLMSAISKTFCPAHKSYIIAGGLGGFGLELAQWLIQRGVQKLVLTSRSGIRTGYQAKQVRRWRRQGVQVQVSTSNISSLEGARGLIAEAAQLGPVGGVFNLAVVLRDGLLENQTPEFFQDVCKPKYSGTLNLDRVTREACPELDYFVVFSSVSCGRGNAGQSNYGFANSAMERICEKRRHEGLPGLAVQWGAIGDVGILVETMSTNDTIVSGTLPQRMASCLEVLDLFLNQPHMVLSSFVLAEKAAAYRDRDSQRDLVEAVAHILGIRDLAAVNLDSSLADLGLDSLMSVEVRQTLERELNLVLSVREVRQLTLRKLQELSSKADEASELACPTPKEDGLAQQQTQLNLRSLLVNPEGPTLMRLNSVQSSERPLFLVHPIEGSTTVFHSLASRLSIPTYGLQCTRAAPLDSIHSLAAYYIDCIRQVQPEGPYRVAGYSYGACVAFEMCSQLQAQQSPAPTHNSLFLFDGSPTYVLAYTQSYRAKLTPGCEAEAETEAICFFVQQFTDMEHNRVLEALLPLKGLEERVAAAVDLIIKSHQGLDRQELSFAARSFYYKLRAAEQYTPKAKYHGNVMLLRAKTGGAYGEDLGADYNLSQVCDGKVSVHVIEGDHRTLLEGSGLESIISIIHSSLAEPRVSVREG", "experiment": "FAS inhibition assay (standard and slow-binding)", "type": "biochemical", "description": "as §1"}, "[3]": {"system": "MCF7 human breast cancer cells", "experiment": "Fatty acid oxidation: oxidation of [14C]palmitate to acid soluble products", "type": "cell-based", "from_the_text": "By “FAO-stimulator,” we mean a compound which stimulates FAO as measured by oxidation of [^14C]palmitate to acid soluble products in MCF7 human breast cancer cells as described by Watkins, et al., “Peroxisomal fatty acid beta-oxidation in HepG2 cells,” Arch Biochem Biophys, 289: 329-336 (1991). A compound whose Vmax is at least 125% of vehicle control is defined as an FAO stimulator."}, "[4]": {"details": "systemic FAO inhibition, rodents; cited from earlier work"}, "[5]": {"system": "carnitine palmitoyltransferase-1 (CPT-1)", "details": "Thupari et al.; cited from earlier work"}, "[6]": {"details": "C75 administration, separate studies; cited from earlier work"}, "[7]": {"system": "FAO in the ventrolateral hypothalamus (VLH)", "details": "cited from earlier work"}, "[8]": {"details": "portal vein infusion, 18 h chow deprived rats; cited from earlier work"}, "[9]": {"details": "single ip dose of 60 mg/kg, within 24 hours, lean female Balb/C mice"}, "[10]": {"details": "slow binder requires preincubation at 37° C. prior to FAS assay, read-out: FAS Inhibition IC50"}, "[11]": {"details": "concentration that yields a 50% increase in fatty acid oxidation over controls, linear regression analysis, read-out: FAO SC150"}}, "note": "Where two headings read alike, the source gives them in different places.", "data": [{"smiles": "C=CCC1(CC=C)C(=O)S[C@](C)(CCCCCCCC)C1=O", "note": "[Compound 4]", "values": [{"measurement": "Metabolic Mechanism (indirect calorimetry): RER", "setting": "[1]", "result": "↓RER p = 0.0057"}, {"measurement": "Metabolic Mechanism (indirect calorimetry): VO2", "setting": "[1]", "result": "↑VO2"}, {"measurement": "Metabolic Mechanism (indirect calorimetry): RER", "setting": "[1]; listed as compound 4", "result": "reducing RER"}, {"measurement": "Metabolic Mechanism (indirect calorimetry): VO2", "setting": "[1]; listed as compound 4", "result": "increased VO2 compared to pair-fed animals"}, {"measurement": "% Maximum Reduction in Food Intake", "setting": "[1]; lean female Balb/C mice", "result": "68% (day 1)"}, {"measurement": "% Max. Wt Loss", "setting": "[1]; lean female Balb/C mice", "result": 7.9, "unit": "%"}, {"measurement": "reduction in food intake", "setting": "[1]; [9]", "result": 68, "unit": "%"}, {"measurement": "weight loss", "setting": "[1]; [9]", "result": "~8", "unit": "%"}, {"measurement": "CPT-1 Activity %", "setting": "CPT-1; % of control at concentration for maximal CPT-1 activity, digitonin permeabilized cells", "result": 150, "unit": "%"}, {"measurement": "concentration giving CPT-1 activity 150% of control", "setting": "CPT-1; molar equivalent of 20 μg/ml", "result": "~60", "unit": "µM"}, {"measurement": "concentration for maximal CPT-1 activity", "setting": "CPT-1; number in parenthesis, digitonin permeabilized cells", "result": 20, "unit": "µg/mL"}, {"measurement": "RER vs pair-fed group (FIG. 3D)", "setting": "[2]; oral 100 mg/kg", "result": "significantly reduced compared to the pair-fed group on days 1, 3, and 4"}, {"measurement": "VO2 by indirect calorimetry vs pair-fed animals (FIG. 3C)", "setting": "[2]; oral 100 mg/kg", "result": "maintained their VO2 compared to pair-fed animals on the first two days following treatment with a significant increase by day 3"}, {"measurement": "food intake vs control animals (FIG. 3B)", "setting": "[2]; oral 100 mg/kg", "result": "ate significantly less food than control animals on the two days following treatment"}, {"measurement": "weight loss vs pair-fed animals (FIG. 3A)", "setting": "[2]; oral 100 mg/kg in DMSO", "result": "lost more weight and maintained the weight loss longer than the pair-fed animals"}, {"measurement": "IC50", "setting": "human FAS; [10]", "result": "> 77.5", "unit": "µM"}, {"measurement": "IC50", "setting": "human FAS; standard and slow-binding assays, read-out: human FAS inhibition: no inhibition at concentrations up to", "result": "> 310", "unit": "µM"}, {"measurement": "EC50", "setting": "[3]; [11]", "result": 8.4, "unit": "µg/mL"}, {"measurement": "EC50", "setting": "[3]; molar equivalent of 8.4 μg/ml, read-out: concentration stimulating FAO by 150% of control", "result": 28, "unit": "µM"}]}, {"smiles": "O=C(O)CS", "note": "[mercaptoacetate]", "values": [{"measurement": "feeding", "setting": "[4]", "result": "Increased feeding"}]}, {"smiles": "C=C1C(=O)O[C@@H](CCCCCCCC)[C@@H]1C(=O)O", "note": "(relative stereo) [Compound C75, trans-tetrahydro-3-methylene-2-oxo-5-n-octyl-4-furancarboxylic]", "values": [{"measurement": "CPT-1 activity", "setting": "[5]", "result": "stimulates carnitine palmitoyltransferase-1 (CPT-1) activity"}, {"measurement": "energy expenditure", "setting": "[6]", "result": "increases energy expenditure"}, {"measurement": "food intake", "setting": "[6]", "result": "reducing food intake"}]}, {"smiles": "CCCCCCCCCCCCCCC1(C(=O)OC)CO1", "note": "(stereo not drawn) [methyl palmoxirate]", "values": [{"measurement": "feeding", "setting": "[4]", "result": "Increased feeding"}]}, {"smiles": "C[N+](C)(C)C[C@H](O)CC(=O)[O-]", "note": "[L-carnitine]", "values": [{"measurement": "food intake or animal weight", "setting": "[7]; infusion into the VLH of rats", "result": "did not affect food intake or animal weight"}, {"measurement": "increase of FAO in the VLH over control levels", "setting": "[7]; infusion into the VLH of rats", "result": 28, "unit": "%"}]}, {"smiles": "CCCCC1OC(=O)C(=O)C1C(=O)OCC", "note": "(stereo not drawn) [Compound 5]", "values": [{"measurement": "Metabolic Mechanism (indirect calorimetry): RER", "setting": "[1]", "result": "↓RER p = 0.01"}, {"measurement": "Metabolic Mechanism (indirect calorimetry): VO2", "setting": "[1]", "result": "↑VO2"}, {"measurement": "% Maximum Reduction in Food Intake", "setting": "[1]; lean female Balb/C mice", "result": "50% (day 1)"}, {"measurement": "% Max. Wt Loss", "setting": "[1]; lean female Balb/C mice", "result": 12.3, "unit": "%"}, {"measurement": "IC50", "setting": "human FAS; [10]", "result": "> 110", "unit": "µM"}, {"measurement": "EC50", "setting": "[3]; [11]", "result": 9, "unit": "µg/mL"}]}, {"smiles": "CCCCCCCC(=O)O", "note": "[caprylic acid]", "values": [{"measurement": "FAO as measured by plasma β-hydroxybutyrate", "setting": "[8]", "result": "increased FAO"}, {"measurement": "reduction of the size of the first dark phase meal", "setting": "[8]", "result": 38, "unit": "%"}]}, {"smiles": "C=CCCC(=O)O", "note": "[Compound 4-PA, 4-pentanoic acid]", "values": [{"measurement": "weight or carcass composition", "setting": "[7]; after 2 weeks of central FAO inhibition, rats", "result": "no significant changes in weight or carcass composition"}, {"measurement": "reduction of FAO in the VLH", "setting": "[7]; infusion for 14 days into the VLH of rats", "result": 37, "unit": "%"}]}]}
